Numbers after ± are expanded uncertainties.
Conditions: 283.15 K, Liquid, Vibrating tube method

CCCCCCCCCC [decane]
Conditions	mass density [kg/m3]
18830 kPa	750.4 ± 2
18862 kPa	750.3 ± 2
18886 kPa	750.4 ± 2
18919 kPa	750.4 ± 2
18953 kPa	750.3 ± 2
18975 kPa	750.3 ± 2
19001 kPa	750.4 ± 2
19028 kPa	750.5 ± 2
19063 kPa	750.5 ± 2
19088 kPa	750.4 ± 2
19116 kPa	750.6 ± 2
19142 kPa	750.5 ± 2
19169 kPa	750.6 ± 2
19195 kPa	750.6 ± 2
19222 kPa	750.6 ± 2
19245 kPa	750.6 ± 2
19296 kPa	750.6 ± 2
19437 kPa	750.6 ± 2
19472 kPa	750.7 ± 2
19500 kPa	750.8 ± 2
19524 kPa	750.7 ± 2
19561 kPa	750.8 ± 2
19589 kPa	750.8 ± 2
19627 kPa	750.9 ± 2
19660 kPa	750.9 ± 2
19683 kPa	750.9 ± 2
19715 kPa	750.9 ± 2
19742 kPa	750.9 ± 2
19762 kPa	750.9 ± 2
19786 kPa	750.9 ± 2
19807 kPa	751 ± 2
19842 kPa	751 ± 2
19870 kPa	751 ± 2
19891 kPa	751 ± 2
19925 kPa	751 ± 2
19953 kPa	751 ± 2
19975 kPa	751 ± 2
19996 kPa	751 ± 2
20017 kPa	751 ± 2
20039 kPa	751.1 ± 2
20064 kPa	751.2 ± 2
20082 kPa	751.2 ± 2
20101 kPa	751.1 ± 2
20121 kPa	751 ± 2
20149 kPa	751.1 ± 2
20174 kPa	751.2 ± 2
20196 kPa	751.3 ± 2
20219 kPa	751.1 ± 2
20248 kPa	751.3 ± 2
20268 kPa	751.2 ± 2
20291 kPa	751.3 ± 2
20310 kPa	751.2 ± 2
20345 kPa	751.3 ± 2
20368 kPa	751.2 ± 2
20387 kPa	751.4 ± 2
20410 kPa	751.3 ± 2
20429 kPa	751.3 ± 2
20462 kPa	751.3 ± 2
20488 kPa	751.4 ± 2
20508 kPa	751.3 ± 2
20558 kPa	751.3 ± 2
20627 kPa	751.4 ± 2
20648 kPa	751.6 ± 2
20677 kPa	751.4 ± 2
20697 kPa	751.6 ± 2
20731 kPa	751.6 ± 2
20762 kPa	751.6 ± 2
20782 kPa	751.6 ± 2
20813 kPa	751.6 ± 2
20841 kPa	751.6 ± 2
20865 kPa	751.6 ± 2
20894 kPa	751.6 ± 2
20922 kPa	751.6 ± 2
20942 kPa	751.6 ± 2
20966 kPa	751.5 ± 2
20994 kPa	751.7 ± 2
21015 kPa	751.7 ± 2
21043 kPa	751.8 ± 2
21074 kPa	751.8 ± 2
21095 kPa	751.8 ± 2
21127 kPa	751.8 ± 2
21151 kPa	751.8 ± 2
21173 kPa	751.8 ± 2
21194 kPa	751.8 ± 2
21211 kPa	751.9 ± 2
21240 kPa	752 ± 2
21271 kPa	751.9 ± 2
21296 kPa	751.8 ± 2
21321 kPa	751.9 ± 2
21353 kPa	751.9 ± 2
21370 kPa	751.9 ± 2
21403 kPa	751.9 ± 2
21752 kPa	752.1 ± 2
21805 kPa	752.2 ± 2
21889 kPa	752.2 ± 2
21915 kPa	752.2 ± 2
21938 kPa	752.3 ± 2
21972 kPa	752.3 ± 2
22007 kPa	752.3 ± 2
22031 kPa	752.3 ± 2
22058 kPa	752.3 ± 2
22089 kPa	752.3 ± 2
22113 kPa	752.4 ± 2
22147 kPa	752.4 ± 2
22178 kPa	752.3 ± 2
22201 kPa	752.4 ± 2
22236 kPa	752.4 ± 2
22272 kPa	752.5 ± 2
22295 kPa	752.5 ± 2
22335 kPa	752.4 ± 2
22359 kPa	752.5 ± 2
22386 kPa	752.6 ± 2
22411 kPa	752.6 ± 2
22446 kPa	752.5 ± 2
22479 kPa	752.6 ± 2
22503 kPa	752.5 ± 2
22527 kPa	752.6 ± 2
22564 kPa	752.6 ± 2
22597 kPa	752.6 ± 2
22622 kPa	752.7 ± 2
22663 kPa	752.6 ± 2
22697 kPa	752.7 ± 2
22722 kPa	752.7 ± 2
22759 kPa	752.7 ± 2
22793 kPa	752.8 ± 2
22818 kPa	752.9 ± 2
22847 kPa	752.9 ± 2
22881 kPa	752.9 ± 2
22919 kPa	752.9 ± 2
23017 kPa	752.9 ± 2
23052 kPa	752.9 ± 2
23107 kPa	753 ± 2
23142 kPa	753 ± 2
23169 kPa	752.9 ± 2
23192 kPa	753.1 ± 2
23212 kPa	753.1 ± 2
23237 kPa	753.1 ± 2
23257 kPa	753.2 ± 2
23291 kPa	753.1 ± 2
23311 kPa	753.2 ± 2
23338 kPa	753.1 ± 2
23363 kPa	753.2 ± 2
23386 kPa	753.2 ± 2
23410 kPa	753.2 ± 2
23441 kPa	753.2 ± 2
23462 kPa	753.2 ± 2
23489 kPa	753.3 ± 2
23513 kPa	753.1 ± 2
23530 kPa	753.2 ± 2
23558 kPa	753.3 ± 2
23590 kPa	753.3 ± 2
23611 kPa	753.3 ± 2
23638 kPa	753.3 ± 2
23667 kPa	753.4 ± 2
23689 kPa	753.3 ± 2
23714 kPa	753.3 ± 2
23743 kPa	753.4 ± 2
23766 kPa	753.4 ± 2
23786 kPa	753.5 ± 2
23812 kPa	753.4 ± 2
23835 kPa	753.5 ± 2
23855 kPa	753.4 ± 2
23875 kPa	753.4 ± 2
23904 kPa	753.5 ± 2
23928 kPa	753.5 ± 2
23957 kPa	753.5 ± 2
23977 kPa	753.6 ± 2
24007 kPa	753.5 ± 2
24024 kPa	753.6 ± 2
24061 kPa	753.7 ± 2
24135 kPa	753.6 ± 2
24155 kPa	753.6 ± 2
24179 kPa	753.7 ± 2
24242 kPa	753.6 ± 2
24265 kPa	753.7 ± 2
24286 kPa	753.7 ± 2
24309 kPa	753.7 ± 2
24330 kPa	753.8 ± 2
24362 kPa	753.7 ± 2
24389 kPa	753.7 ± 2
24410 kPa	753.7 ± 2
24434 kPa	753.8 ± 2
24452 kPa	753.9 ± 2
24490 kPa	753.9 ± 2
24511 kPa	753.7 ± 2
24533 kPa	753.8 ± 2
24564 kPa	753.9 ± 2
24596 kPa	753.8 ± 2
24618 kPa	753.9 ± 2
24642 kPa	753.8 ± 2
24660 kPa	753.9 ± 2
24682 kPa	753.9 ± 2
24710 kPa	754 ± 2
24739 kPa	753.9 ± 2
24764 kPa	753.9 ± 2
24796 kPa	754 ± 2
24819 kPa	754 ± 2
24845 kPa	754.1 ± 2
24871 kPa	754.1 ± 2
24904 kPa	754.2 ± 2
24924 kPa	754.1 ± 2
24954 kPa	754.2 ± 2
24981 kPa	754.1 ± 2
25004 kPa	754.2 ± 2
25025 kPa	754.1 ± 2
25048 kPa	754 ± 2
25068 kPa	754.2 ± 2
25099 kPa	754.3 ± 2
25121 kPa	754.2 ± 2
25141 kPa	754.3 ± 2
25168 kPa	754.2 ± 2
25199 kPa	754.3 ± 2
25220 kPa	754.3 ± 2
25248 kPa	754.2 ± 2
25268 kPa	754.3 ± 2
25286 kPa	754.3 ± 2
25313 kPa	754.2 ± 2
25335 kPa	754.3 ± 2
25366 kPa	754.4 ± 2
25398 kPa	754.5 ± 2
25416 kPa	754.3 ± 2
25477 kPa	754.4 ± 2
25498 kPa	754.4 ± 2
25523 kPa	754.5 ± 2
25544 kPa	754.5 ± 2
25566 kPa	754.5 ± 2
25591 kPa	754.5 ± 2
25620 kPa	754.5 ± 2
25645 kPa	754.5 ± 2
25669 kPa	754.5 ± 2
25695 kPa	754.6 ± 2
25712 kPa	754.5 ± 2
25739 kPa	754.7 ± 2
25768 kPa	754.7 ± 2
25788 kPa	754.7 ± 2
25818 kPa	754.6 ± 2
25845 kPa	754.4 ± 2
25865 kPa	754.6 ± 2
25888 kPa	754.7 ± 2
25908 kPa	754.6 ± 2
25939 kPa	754.7 ± 2
25967 kPa	754.7 ± 2
25992 kPa	754.7 ± 2
26022 kPa	754.7 ± 2
26046 kPa	754.8 ± 2
26065 kPa	754.7 ± 2
26099 kPa	754.8 ± 2
26119 kPa	754.9 ± 2
26136 kPa	754.7 ± 2
26166 kPa	754.8 ± 2
26197 kPa	754.7 ± 2
26220 kPa	754.9 ± 2
26245 kPa	754.8 ± 2.1
26273 kPa	754.8 ± 2.1
26300 kPa	754.8 ± 2.1
26324 kPa	754.9 ± 2.1
26341 kPa	755 ± 2.1
26368 kPa	754.9 ± 2.1
26389 kPa	755 ± 2.1
26421 kPa	755 ± 2.1
26445 kPa	755 ± 2.1
26466 kPa	755 ± 2.1
26490 kPa	755 ± 2.1
26510 kPa	755.1 ± 2.1
26538 kPa	755.1 ± 2.1
26567 kPa	755.1 ± 2.1
26591 kPa	755 ± 2.1
26624 kPa	755.2 ± 2.1
26652 kPa	755.2 ± 2.1
26677 kPa	755.2 ± 2.1
26694 kPa	755.2 ± 2.1
26726 kPa	755.2 ± 2.1
26754 kPa	755.3 ± 2.1
